The values that follow are results of earlier work, collected in patent US12394502B2, “Method for predicting HLA-binding peptides using protein structural features” (The General Hospital Corporation, priority 2019, dated 2025).

Data set [1] has as its system advanced hormone refractory prostate cancer patients. Particulars: personalized vaccination alone or combined with a low dose of estramustine.
Data set [2] concerns Stage IV Melanoma Patients. The following applies: temozolomide combined with peptide vaccination.
Data set [3] deals with ovarian carcinoma patients.
For data set [4] the following is noted: more than 25 clinical trials.

For the compound `C[C@]12CC[C@@H]3c4ccc(OC(=O)N(CCCl)CCCl)cc4CC[C@H]3[C@@H]1CC[C@@H]2O` [estramustine], the “patients with >50% decrease in serum prostate specific antigen (PSA)” value in data set [1] is on record as 54%.
For the compound `Cn1nnc2c(C(N)=O)ncn2c1=O` [temozolomide], the toxicity result in data set [2] is listed as “low toxicity”.
In the case of “Polyinosinic-Polycytidylic Acid-poly-L-lysine Carboxymethylcellulose [poly-ICLC]”, in the data set with healthy human volunteers (human volunteer study), the safety result is listed as “safe”. The “differential expression of genes versus placebo” value in the data set on healthy human volunteers (one single s.c. administration, 8 subjects versus 4 placebo, whole blood) is “up to 212 genes”. Moreover, the “generation of NY-ESO-1-specific CD4+ and CD8+ T cell and antibody responses” value in data set [3] (1.4 mg poly-ICLC and Montanide added to OLP, compared to OLP alone or OLP and Montanide, subcutaneous) was “markedly enhanced”. The “patients showing induction of CD4+ and CD8+ T cell, as well as antibody responses to the peptide” value in data set [3] (poly-ICLC in combination with NY-ESO-1 peptide vaccine (in addition to Montanide)) is reported as greater than 90%. Further, the toxicity profile entry in data set [4] was “relatively benign toxicity profile”.
